Data reported in the supplement of paper PMC8239392.

Tests used:
[1] = tested on: TAZ-DEP MCF10A-TAZ tumor cells; assay: cell viability relative to DMSO control; higher = less cytotoxic; extreme values may be limits of the assay; settings: 72 h
Protocol: (§1)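 TAZ-dependent (grown with 2 ug/ml dox) and TAZ-independent MCF10A-TAZ tumor-derived breast cancer stem-like cells were plated in 384-well plates and treated with serially diluted compounds (0.65-10 uM) for 72 h. Viability was read by resazurin assay and expressed as % of DMSO-treated control.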

[2] = tested on: TAZ-IND MCF10A-TAZ tumor cells; assay: as above; settings: 72 h
Protocol: as §1

SMILES	cell viability ([1]; 0.65 µM) [%]	cell viability ([1]; 1.25 µM) [%]	cell viability ([1]; 2.5 µM) [%]	cell viability ([1]; 5 µM) [%]	cell viability ([1]; 10 µM) [%]	cell viability ([2]; 0.65 µM) [%]	cell viability ([2]; 1.25 µM) [%]	cell viability ([2]; 2.5 µM) [%]	cell viability ([2]; 5 µM) [%]	cell viability ([2]; 10 µM) [%]
COC1CCN(C(=O)c2cc(Cc3n[nH]c(=O)c4ccccc34)ccc2F)CC1 [AZD2461]	94	91	94	70	56	94	89	91	83	78
Cc1[nH]nc(C(F)(F)F)c1Cc1sc2c(c1C(=O)N1C[C@](C)(O)CO1)c(=O)n(C)c(=O)n2C(C)C [AZD3965]	54	49	45	39	32	92	87	91	60	47
C[C@H]1COC2=C1C(=O)C(=O)c1c2ccc2c1CCCC2(C)C [Cryptotanshinone]	96	94	92	74	30	96	97	93	87	79
NCCCC[C@@H]1NC(=O)[C@@H](Cc2ccc(O)cc2)NC(=O)[C@H](CC(=O)O)NC(=O)CNC(=O)[C@H](CCCN=C(N)N)NC1=O [Cyclo(RGDyK)]	99	86	59	49	27	98	94	86	74	65
CCCCCCCCCCCC1=C(O)C(=O)C=C(O)C1=O [Embelin]	89	84	75	57	28	89	90	90	89	82
CCn1c2ccccc2c2cc(CNCc3ccccc3OC)ccc21 [HLCL-61]	100	100	100	89	59	97	99	100	100	95
C#Cc1cccc(Nc2ncnc3cc4c(cc23)OCCOCCOCCO4)c1 [Icotinib]	100	100	100	89	34	100	100	100	100	96
Nc1nc(OCc2cc(Br)cs2)c2[nH]cnc2n1 [Lomeguatrib]	96	91	90	55	36	96	98	97	100	85
O=C([C@@H](Cc1cccc(C(F)(F)F)c1)NS(=O)(=O)c1cc(F)c2c(c1)CCNC2)N1CCCC1 [PFI-2]	94	85	72	56	46	97	94	92	85	78
O=C(/C=C/c1ccc2ccccc2n1)c1ccncc1 [PFK15]	100	100	81	47	31	98	98	99	95	97
CCc1nc(N)nc(N)c1-c1ccc(Cl)cc1 [Pyrimethamine]	100	100	98	85	56	100	100	100	100	98
COc1cc(F)c(F)c(Nc2ccc(I)cc2F)c1NS(=O)(=O)C1(C[C@H](O)CO)CC1 [Refametinib (RDEA119, Bay 86-9766)]	53	51	51	51	50	84	82	80	77	71
CC(C)N(CCCNC(=O)Nc1ccc(C(C)(C)C)cc1)C[C@H]1O[C@@H](n2cc(Br)c3c(N)ncnc32)[C@H](O)[C@@H]1O [SGC 0946]	89	83	78	63	-1	94	89	79	34	1
CC(C)(C)c1ccc(S(=O)(=O)NCc2ccc(C(=O)Nc3cccnc3)cc2)cc1 [STF-31]	100	100	100	99	98	99	100	100	97	96
CNC(=O)c1cc(Oc2ccc(NC(=O)Nc3ccc(Cl)c(C(F)(F)F)c3)cc2)ccn1 [Sorafenib]	100	98	92	84	72	100	99	100	98	93
N#CC(=C(/N)Sc1ccccc1N)/C(C#N)=C(\N)Sc1ccccc1N [U0126-EtOH]	99	94	84	70	67	95	94	89	84	79
CNCc1ccc(-c2cc(-c3nc(-c4ccc(S(=O)(=O)C(C)C)cc4)cnc3N)on2)cc1 [VE-822]	55	37	29	23	20	96	87	81	75	69
C=CC(=O)Nc1cccc(Oc2nc(Nc3ccc(N4CCN(C)CC4)cc3OC)ncc2Cl)c1 [WZ4002]	90	72	67	33	23	96	97	96	75	68
